Data: ChEMBL document CHEMBL1201862, “PubChem BioAssay data set” (2004)
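Tested at 5 concentrations; 48 h exposure; 96-well plates; endpoints linearly interpolated, else capped at highest concentration. Abbreviation: GI50, concentration required for 50% inhibition of growth.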 Active and inactive are the calls of the source. No stated cut-off is given here; in the data, active = GI50 up to about 1.1 µM and inactive = higher.

What was measured:
Assay in all cases: inhibition of tumour cell growth, NCI panel, 48 h
A498 = test system: A498
A549 = test system: A549
ACHN = test system: ACHN
CCRF-CEM = test system: CCRF-CEM
DMS-114 = test system: DMS-114
DMS-273 = test system: DMS-273
EKVX = test system: EKVX
HCT-116 = test system: HCT-116
HL-60 = test system: HL-60
HOP-62 = test system: HOP-62
HOP-92 = test system: HOP-92
HT-29 = test system: HT-29
IGROV-1 = test system: IGROV-1
K562 = test system: K562
KM12 = test system: KM12
M14 = test system: M14
M19-MEL = test system: M19-MEL
MOLT-4 = test system: MOLT-4
NCI-H23 = test system: NCI-H23
NCI-H460 = test system: NCI-H460
NCI-H522 = test system: NCI-H522
OVCAR-5 = test system: OVCAR-5
OVCAR-8 = test system: OVCAR-8
RXF 393 = test system: RXF 393
RXF 631 = test system: RXF 631
SF-268 = test system: SF-268
SF-295 = test system: SF-295
SK-MEL-28 = test system: SK-MEL-28
SK-OV-3 = test system: SK-OV-3
SNB-19 = test system: SNB-19
SR = test system: SR
TK-10 = test system: TK-10
U-251 = test system: U-251
UACC-257 = test system: UACC-257
UACC-62 = test system: UACC-62
UO-31 = test system: UO-31
786-0 = test system: 786-0
CAKI-1 = test system: CAKI-1
COLO 205 = test system: COLO 205
DLD-1 = test system: DLD-1
HCC 2998 = test system: HCC 2998
HCT-15 = test system: HCT-15
HOP-18 = test system: HOP-18
KM-20L2 = test system: KM-20L2
LOX IMVI = test system: LOX IMVI
LXFL 529 = test system: LXFL 529
Malme-3M = test system: Malme-3M
NCI-H226 = test system: NCI-H226
OVCAR-3 = test system: OVCAR-3
OVCAR-4 = test system: OVCAR-4
RPMI-8226 = test system: RPMI-8226
SF-539 = test system: SF-539
SK-MEL-2 = test system: SK-MEL-2
SK-MEL-5 = test system: SK-MEL-5
SN12C = test system: SN12C
SNB-75 = test system: SNB-75
SNB-78 = test system: SNB-78
SW-620 = test system: SW-620

Structure (SMILES): c1ccc(-c2nc3sccn3n2)cc1
- GI50 (A498): > 100 µM (inactive)
- GI50 (A549): > 100 µM (inactive)
- GI50 (ACHN): > 100 µM (inactive)
- GI50 (CCRF-CEM): > 100 µM (inactive)
- GI50 (DMS-114): > 100 µM (inactive)
- GI50 (DMS-273): > 100 µM (inactive)
- GI50 (EKVX): > 100 µM (inactive)
- GI50 (HCT-116): > 100 µM (inactive)
- GI50 (HL-60): > 100 µM (inactive)
- GI50 (HOP-62): > 100 µM (inactive)
- GI50 (HOP-92): 74.3 µM (inactive)
- GI50 (HT-29): > 100 µM (inactive)
- GI50 (IGROV-1): > 100 µM (inactive)
- GI50 (K562): > 100 µM (inactive)
- GI50 (KM12): > 100 µM (inactive)
- GI50 (M14): > 100 µM (inactive)
- GI50 (M19-MEL): > 100 µM (inactive)
- GI50 (MOLT-4): > 100 µM (inactive)
- GI50 (NCI-H23): > 100 µM (inactive)
- GI50 (NCI-H460): > 100 µM (inactive)
- GI50 (NCI-H522): > 100 µM (inactive)
- GI50 (OVCAR-5): > 100 µM (inactive)
- GI50 (OVCAR-8): > 100 µM (inactive)
- GI50 (RXF 393): > 100 µM (inactive)
- GI50 (RXF 631): > 100 µM (inactive)
- GI50 (SF-268): > 100 µM (inactive)
- GI50 (SF-295): > 100 µM (inactive)
- GI50 (SK-MEL-28): > 100 µM (inactive)
- GI50 (SK-OV-3): > 100 µM (inactive)
- GI50 (SNB-19): > 100 µM (inactive)
- GI50 (SR): > 100 µM (inactive)
- GI50 (TK-10): > 100 µM (inactive)
- GI50 (U-251): > 100 µM (inactive)
- GI50 (UACC-257): > 100 µM (inactive)
- GI50 (UACC-62): > 100 µM (inactive)
- GI50 (UO-31): > 100 µM (inactive)

Structure (SMILES): CC1(C)OC2CC3COC(=O)C3CC2O1 (configuration not stated)
- GI50 (786-0): > 100 µM (inactive)
- GI50 (A498): > 100 µM (inactive)
- GI50 (A549): > 100 µM (inactive)
- GI50 (ACHN): > 100 µM (inactive)
- GI50 (CAKI-1): > 100 µM (inactive)
- GI50 (CCRF-CEM): > 100 µM (inactive)
- GI50 (COLO 205): > 100 µM (inactive)
- GI50 (DLD-1): > 100 µM (inactive)
- GI50 (DMS-114): > 100 µM (inactive)
- GI50 (DMS-273): > 100 µM (inactive)
- GI50 (EKVX): > 100 µM (inactive)
- GI50 (HCC 2998): > 100 µM (inactive)
- GI50 (HCT-116): > 100 µM (inactive)
- GI50 (HCT-15): > 100 µM
- GI50 (HL-60): > 100 µM (inactive)
- GI50 (HOP-18): > 100 µM (inactive)
- GI50 (HOP-62): > 100 µM (inactive)
- GI50 (HOP-92): > 100 µM (inactive)
- GI50 (HT-29): > 100 µM (inactive)
- GI50 (IGROV-1): > 100 µM (inactive)
- GI50 (K562): > 100 µM (inactive)
- GI50 (KM-20L2): > 100 µM (inactive)
- GI50 (KM12): > 100 µM (inactive)
- GI50 (LOX IMVI): > 100 µM (inactive)
- GI50 (LXFL 529): > 100 µM (inactive)
- GI50 (M14): > 100 µM (inactive)
- GI50 (M19-MEL): > 100 µM (inactive)
- GI50 (MOLT-4): > 100 µM (inactive)
- GI50 (Malme-3M): > 100 µM (inactive)
- GI50 (NCI-H226): > 100 µM (inactive)
- GI50 (NCI-H23): > 100 µM (inactive)
- GI50 (NCI-H460): > 100 µM (inactive)
- GI50 (NCI-H522): > 100 µM (inactive)
- GI50 (OVCAR-3): > 100 µM (inactive)
- GI50 (OVCAR-4): > 100 µM (inactive)
- GI50 (OVCAR-5): > 100 µM (inactive)
- GI50 (OVCAR-8): > 100 µM (inactive)
- GI50 (RPMI-8226): > 100 µM (inactive)
- GI50 (RXF 631): > 100 µM (inactive)
- GI50 (SF-268): > 100 µM (inactive)
- GI50 (SF-295): > 100 µM (inactive)
- GI50 (SF-539): > 100 µM (inactive)
- GI50 (SK-MEL-28): > 100 µM (inactive)
- GI50 (SK-MEL-2): > 100 µM (inactive)
- GI50 (SK-MEL-5): > 100 µM (inactive)
- GI50 (SK-OV-3): > 100 µM (inactive)
- GI50 (SN12C): > 100 µM (inactive)
- GI50 (SNB-75): > 100 µM (inactive)
- GI50 (SNB-78): > 100 µM (inactive)
- GI50 (SR): > 100 µM (inactive)
- GI50 (SW-620): > 100 µM (inactive)
- GI50 (TK-10): > 100 µM (inactive)
- GI50 (U-251): > 100 µM (inactive)
- GI50 (UACC-257): > 100 µM (inactive)
- GI50 (UACC-62): > 100 µM (inactive)
- GI50 (UO-31): > 100 µM (inactive)
